According to ChEMBL document CHEMBL3046662, “Hypoglycemic and insulin mimetic impact of catechin isolated from Cassia fistula: a substantiate in silico approach through docking analysis” (Med Chem Res, 2012):
The source made the active and inactive calls. No cut-off for these calls is given here.

Test system: Rattus norvegicus
Test: Hypoglycemic activity in Rattus norvegicus albino Wistar (rat) streptozotocin-induced diabetic model assessed as reduction of plasma glucose level at 20 mg/kg, po qd for 60 days measured up to 180 min by oral glucose tolerance test
Format: functional, organism-based
Set-up: dose 20 mg/kg

In the case of `Oc1cc(O)c2c(c1)OC(c1ccc(O)c(O)c1)C(O)C2` (stereo unspecified), the Activity is reported as “Active”.
